# Results published in patent US5814612A, “Retinol derivatives and uses thereof” (priority 1992, dated 1998).
# Entries after “also recorded” stand apart in the source; their conditions may differ. Where two headings read alike, the source gives them in different places.
# What was measured:
# 5/2 cells = experiment: B-cell growth assay ([3H]-thymidine uptake), lymphoblastoid 5/2 cells in serum-free HB101 medium; assay type: cell-based, human
# Description: Washed 5/2 cells (5,000/well) were incubated for 72 hours in HB101 medium with the indicated amounts of retinoids. DNA synthesis was measured by [^3 H] thymidine uptake. The measurements were done in triplicate. The SDs were <15%.
# In FIGS. 4B to 4D, 5/2 cells were washed twice and seeded at a concentration of 150,000 cells/ml in HB 101 medium. Triplicate samples of 100 μl of cell suspension were removed daily and pulsed for 6 hours with [^3 H] thymidine. Means are shown. The SDs were never >20%.
# P3 was purified as described in the Experimental Details section. 5/2 cells (5,000/well) were incubated for 72 hours in HB101 medium and refed with the indicated amount of retinoid daily. DNA synthesis was measured by [^3 H]-thymidine uptake. P3 is bioactive down to a concentration of 10-^8 M (FIG. 8). […] This is due either to chemical instability or to a more rapid metabolic degradation of P3 by the cells.
# The human EBV-transformed B-cell line 5/2 was established from the peripheral blood of a healthy donor. The cell line was grown in RPMI 1640 supplemented with 8% fetal calf serum, L-glutamine (2 mM), and antibiotics. The cell line was tested regularly for mycoplasma infections and was consistently negative.
# The assay system is a modification of the assay developed by Blazar et al. (12). […] Assays were done in 96 well microtiter plates in a final volume of 200 μl/well or in 25 cm^2 tissue culture flasks. The cells in the microtiter plates were cultured for 72 hours and cell growth was determined by labeling for the last 16 hours with 0.8 μCi/well of [^3 H]thymidine (sp. act. 6.7 Ci/mmol). Growth in the culture flasks was determined in three aliquots of 100 μl taken at 24 hours intervals and cultured in the presence of 0.8 μCi of [^3 H]thymidine for an additional 6 hour period. To determine the viable cell number, nine aliquots per time point were differentially counted in a Neubauer chamber in the presence of trypan blue.
# T cells = experiment: T cell activation and proliferation, retinol cofactor requirement; assay type: cell-based, murine
# Description: They were seeded into 96-well flat-bottom plates at varying cellular densities in a final volume of 100 μl. In control experiments, cells were cultured in medium containing 10% FCS or 3% human serum and 5×10^-5 M 2ME. […] Cultures were carried out in duplicate. Plates were incubated at 37° C. in a humidified 5% CO2 atmosphere. Cellular proliferation was determined by [^3 H] thymidine uptake (0.5 uCi/well; New England Nuclear, Boston, Mass.) after the incubation times indicated for each experiment with a 4 hour labeling pulse. Cells were harvested onto glass filter and [^3 H]TdR incorporation was determined by liquid scintillation counting. The data presented are the means of duplicate or six replicate cultures. The restriction to duplicate measurements was necessary to conserve scarce 14HRR. […] Each experiment was repeated at least twice.
# thymocytes = experiment: Proliferation of anti-CD3 activated thymocytes in serum-free ITLB medium; assay type: cell-based, BALB/c mouse; settings: for effectiveness relative to retinol: anti-CD3, 14HRR at 12 hour intervals; for proliferative response of anti-CD3e activated thymocytes / growth kinetics over four days: retinol 3×10^-6 M, 14HRR 6×10^-7 M, human serum 3%; for growth kinetics over four days: 10^5 cells/well
# Description: FIG. 14A: Purified BALB/c thymocytes were activated with immobilized anti-CD3e antibody and cultivated for four days in ITLB medium with or without retinol (3×10^-6 M), 14HRR (6×10^-7 M) (fresh 14HRR was added every 12 hours), human serum (3%) or FCS (10%) at the cellular densities shown. Proliferation was assayed by tritiated thymidine incorporation into cellular DNA.
# FIG. 14B: BALB/c thymocytes (10^6 /ml) were added to microtiter plates coated with titrated amounts of anti-CD3e antibody with […] retinol or without, as indicated. Proliferation was measured in hexaduplicate wells on day 3 by ^3 H thymidine incorporation assay.
# Purified thymocytes (5×10^5 cells/well) were stimulated by TCR crosslinking with immobilized anti-CD3e antibody (FIG. 15A) or 0.4 μg/ml Con A (FIG. 15B) in serum-free ITLB medium. The indicated amounts of retinoids were added either once at the beginning of the experiment (marked as "1×") or every 12 hours thereafter (marked as "6×"). DNA synthesis was measured after 72 hours by tritiated thymidine uptake as described.
# Purified thymocytes (10^5 cells/well) were activated with anti-CD3 antibody in ITLB medium with or without retinol (3×10^-6 M), 14HRR (6×10^-7, added every 12 hours or human serum (3%)). DNA synthesis was measured daily by a 4 hour pulse of tritiated thymidine.
# Thymocytes (5×10^4 /well) were activated by immobilized anti-CD3 mAb in medium ITLB. Retinol (2×10^-6 M) was added at initiation of culture, or delayed by 12 hours and 24 hours, respectively, or omitted altogether. ^3 H thymidine pulses of 4 hours were used to measure DNA synthesis of hexaduplicate wells.
# Thymuses of 3 to 6-week-old BALB/c mice were teased in serum-free RPMI medium supplemented with 1% BSA, 10^-6 M linoleic acid and antibiotics. Depletion of accessory cells was achieved by two cycles of complement-dependent lysis with a mixture of anti-IA^d (5 μg/ml) and anti-IE^d (1:500 diluted ascites fluid). Briefly, cells were incubated on ice for 30 minutes with Ia antibodies, spun down, resuspended in 1:40 diluted rabbit complement, and incubated at 37° C. for 45 minutes. Incubations and two subsequent washes were carried out with RPMI medium containing 1% BSA. Cell viability was evaluated by trypan blue dye exclusion. To determine the extent of depletion of accessory cells, samples were stained with FITC-conjugated anti-Fc receptor antibody and analyzed by flow cytometry on a FACScan instrument (Becton Dickinson).
# Cells were cultured in serum-free medium, referred to as ITLB, containing RPMI 1640 supplemented with 8×10^-7 M insulin (5 μg/ml), 7×10^-8 M transferrin (5 μg/ml), 2×10^-6 M linoleic acid, 2×10^-6 M delipidated BSA (0.12 mg/ml), 2 mM L-glutamine, 1 mM sodium pyruvate and antibiotics. They were seeded into 96-well flat-bottom plates at varying cellular densities in a final volume of 100 μl. In control experiments, cells were cultured in medium containing 10% FCS or 3% human serum and 5×10^-5 M 2ME. T cells and thymocytes were activated with immobilized, purified anti-mAb CD3e or by the addition of Con A in the presence or absence of different concentrations of retinoids. Unless indicated otherwise, retinoids were replenished every 12 hours to maintain a reasonably constant concentration of these labile compounds in culture. […] Cultures were carried out in duplicate. Plates were incubated at 37° C. in a humidified 5% CO2 atmosphere. Cellular proliferation was determined by [^3 H] thymidine uptake (0.5 uCi/well; New England Nuclear, Boston, Mass.) after the incubation times indicated for each experiment with a 4 hour labeling pulse.
# [1] = system: activated human thymocytes; settings: cited from earlier work
Compound,growth of 5/2 cells (5/2 cells),"minimal effective concentration (5/2 cells; Homo sapiens, B-cell, 72 hours, refed daily, read-out: lowest bioactive concentration (bioactive down to)) [µM]",ability to substitute for retinol in T cell activation (words) (T cells),effectiveness relative to retinol (thymocytes),dose optimum (thymocytes; provided at 12 hour intervals) [nM],proliferative response of anti-CD3e activated thymocytes (thymocytes),growth kinetics over four days (thymocytes),effect of a single addition at start of culture (thymocytes; single addition),support of growth of activated human thymocytes [1],"T cell activation in FCS-containing medium (T cells; FCS-containing medium, absence of APC)","reduction of sufficient retinol concentration with repeated feeding (thymocytes; replenished twice daily, 3-day culture)",ability to substitute for retinol in T cell activation (words) (T cells; listed as retinoic acid)
"CC(C=CC=C(C)C(O)CO)=CC=C1C(C)=CCCC1(C)C (centres unmarked) [14HRR, 14-hydroxy-4,14-retro-retinol]",active and capable of replacing retinol,0.01,effectively supports T cell activation in conjunction with a mitogen in lieu of retinol; also recorded: capable of supporting activation and sustaining proliferation of T cells; also recorded: capable of supporting T cell activation and proliferation in the absence of any extraneous source of retinal,as potent as retinol,500,vigorous responses were elicited,exponential growth,ineffective; also recorded: does not enable sustained proliferation; also recorded: insufficient to drive T cell proliferation,,,,
"CC1=C(/C=C/C(C)=C/C=C/C(C)=C/CO)C(C)(C)CCC1 [retinol, all-trans retinol]",enable 5/2 cells to grow,,,,,vigorous responses were elicited,exponential growth,,The same is true for activated human thymocytes,"no activation in the absence of APC, whether or not additional retinol is supplied",five- to ten-fold lower,
CC1=C(/C=C/C(C)=C/C=C/C(C)=C/C(=O)O)C(C)(C)CCC1 [all-trans retinoic acid],,,,completely inactive,,,,,The same is true for activated human thymocytes,,,cannot be satisfied by retinoic acid; also recorded: T lymphocytes neither respond to externally provided retinoic acid
